Test results reported in patent US8729047B2, “Compositions for inhibiting redox-sensitive GTPases” (Board of Regents, The University of Texas System, priority 2010, dated 2014).
Where two headings read alike, the source gives them in different places. One block for each compound: values may come before it.

Columns and labels:
[1] = system: HT1080 cells; experiment: Tumor cell apoptosis / viability (MTT); assay type: cell-based, human
From the text: (§1) Cell viability was examined employing 3-(4,5-dimethylthiazol-2-yl)-2,5-diphenyl tetrazolium bromide (MTT) (Cabello et al. Int. J. Oncol. 23, 697-704 (2003)).

[2] = system: T24 cells; experiment: Tumor cell apoptosis / viability (MTT); assay type: cell-based, human
From the text: as §1

[3] = target: Rac1 (Homo sapiens, UniProt P63000); experiment: Rac1 expression (Western) and Rac1 G-LISA activity in activated T cells; assay type: cell-based
Description: FIG. 26. Determination of Rac1 activity and ERM phosphorylation. […] (A) The soluble cell extract was then used to perform Western blot analyses for Rac1 and the ERM. This cell extract also was used for the co-IP-based ESI-MS analysis (FIG. 8). (B) A Rac1 activity assay was colorimetrically determined using cell extract; the assay was performed with the Rac1 G-LISA Activation Assay Kit (Cat. No. BK125) (Denver, Colo.). To examine the level of phosphorylation of the ERM, cells were cultured in complete RPMI 1640 medium with ˜50 μCi of ^32P/mL before initiating stimulation of T cells. The collected cell extract was nutated with resin coupled with a human ERM (231C2a) antibody (Santa Cruz Biotechnology, CA) at 4° C. for 5 h. […] The immunoprecipitates were then analyzed by SDS-PAGE and autoradiographed. […] The data represented in the figure represent the mean values of triplicate measurements, and the vertical error bar indicates standard errors.

[4] = target: T1, RhoA (Rattus norvegicus, UniProt P61589); experiment: Co-IP ESI-MS of thioguanine nucleotide disulfide adduct in A7r5 cells; assay type: cell-based; details: for thioguanine nucleotide-RhoA disulfide adduct (Cys20): FIGS. 21, 22
T1 construct: endogenous in cells; host or cells: A7r5 cells (rat aortic vascular smooth muscle)
T1 sequence (P61589 whole entry): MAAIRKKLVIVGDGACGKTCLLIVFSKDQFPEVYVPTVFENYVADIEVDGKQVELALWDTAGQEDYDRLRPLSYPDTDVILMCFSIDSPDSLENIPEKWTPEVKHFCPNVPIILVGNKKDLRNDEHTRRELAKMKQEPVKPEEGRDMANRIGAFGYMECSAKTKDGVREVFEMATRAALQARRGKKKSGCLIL
Description: FIG. 21. Detection of 6-TGNP adduct from A7r5 and T cells. Experimental procedures using A7r5 (A and B) and T (C and D) cells, respectively, were identical to those of the experiments described in FIG. 19 and previous studies (Tiede et al. J. Clin. Invest. 111, 1133-1145 (2003); and Poppe et al. J. Immunol. 176, 640-651 (2006)). The cell extract was incubated with a monoclonal RhoA antibody (A and B) or a Rac1 antibody (C and D) coupled with resin. Resin was collected by centrifugation (5,000×g, 10 min), which was suspended in 50% methanol:0.1% formic acid. The protein portion was separated by brief centrifugation (3,000×g for 5 min), resuspended in a buffer containing 10 mM EDTA and 5 mM phosphate (pH 7.5), digested with trypsin for 10 h, and analyzed with MS. The MS peak at 1476.6 Da represents peptide-6-TGDP adduct; TC^20LLIVFSK-6-TGDP.
FIG. 22. Detection of 8-TGNP adduct from A7r5 cells. […] The indicated MS peak at 1476.6 Da represents peptide-8-TGDP adduct; TC^20LLIVFSK-8-TGDP (SEQ ID NO:4). The molecular weight of the peptide-8-TGDP adduct is exactly the same as that of the peptide-6-TGDP adduct. A and B, respectively, represent any of samples taken from a cell culture with and without treatment with 8-TG.

[5] = target: RhoC (Homo sapiens, UniProt P08134); experiment: Competitive binding assay, [3H]GDP-loaded Rho protein titrated with 6-TGDP (FIG. 16A); parameters: made in house; host or cells: E. coli
Sequence of RhoC (P08134 whole entry): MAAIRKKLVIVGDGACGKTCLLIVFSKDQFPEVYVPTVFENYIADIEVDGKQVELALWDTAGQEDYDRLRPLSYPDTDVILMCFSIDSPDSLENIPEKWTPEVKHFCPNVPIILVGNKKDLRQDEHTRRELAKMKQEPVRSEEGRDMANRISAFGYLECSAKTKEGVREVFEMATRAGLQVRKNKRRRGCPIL
Description: (§2) FIG. 16. Kinetic properties of RhoC with 6-TGDP in the presence or absence of a redox agent. All kinetic analyses are described elsewhere herein. (A) ^appKD values of Rac1, RhoA, RhoC, and RhoC C20S for 6-TGDP were estimated to be 7.9, 11.6, 11.8, and 11.2 μM, respectively. ^trueKD values of Rac1, RhoA, […] for 6-TGDP were then calculated to be 5.1, 10.8, 11.1, and 10.5 μM, respectively, by using a compensation equation, ^trueKD for 6-TGDP=^appKD for 6-TGDP/(1+[[^3H]GDP]/^trueKD for GDP) (Heo, J., and Hong, I. (2010) Biochemistry 49, 3965-3976), in conjunction with the values given. […] The GDP dissociation rates from RhoC C20S by NO, .NO2, and N2O3 were estimated to be 0.02×10^−3, 0.05×10^−3, and 0.04×10^−3 s^−1, respectively. […] (D) ^appKD values of RhoC for [^3H]GDP in the presence or absence of DTT were estimated to be 22.4 μM and […], respectively. ^appKD values of C20S RhoC for [^3H]GDP in the presence or absence of DTT were determined to be 24.8 μM and 25.2 μM, respectively. The regression values associated with these fits were >0.8595. All data points associated with vertical standard error bars shown in this figure are the mean values of triplicate measurements.
(§3) Transition metal-free assay buffer and vials as described in a previous study (Heo et al. Biochemistry 49, 3965-3976 (2010)) were used for all kinetic assays. The kinetic assay buffer contains the highest grade of 50 mM NaCl, 10 mM MgCl2, 1 mM EDTA, and 0.1 mM DTPA in 50 mM TrisHCl (pH 7.4). Before performance of any of the assays, all protein samples also were dialyzed with a metal-free buffer under anaerobic conditions. As with RhoA and Rac1 (Heo et al. J. Biol. Chem. 280, 31003-31010 (2005)), C20S RhoC were expressed in E. coli and purified using anionic and size exclusion columns.
(§4) (a) A competitive binding assay was performed to determine the binding affinity of Rho GTPase and 6-TGDP. The radiolabeled [^3H]GDP-loaded Rho protein (1 μM) was titrated with various concentrations of 6-TGDP. The titrated Rho protein sample then was spotted onto a nitrocellulose membrane. Each membrane was washed three times with the assay buffer, and radioactivity was determined using a Beckman-Coulter scintillation counter. The radioactivity of the sample (Rho protein-bound [^3H]GDP) was converted into, and thus plotted, as the fraction of mol GDP per mol total Rho protein. The apparent dissociation constant (^appKD) of the Rho protein with [^3H]GDP in the presence of 6-TGDP was determined by using Prism software to fit the titration curve to a hyperbola.

[6] = target: RhoC C20S (Homo sapiens, UniProt P08134, C20S); experiment: as above; parameters: made in house; host or cells: E. coli
Sequence of RhoC C20S (P08134 whole entry C20S): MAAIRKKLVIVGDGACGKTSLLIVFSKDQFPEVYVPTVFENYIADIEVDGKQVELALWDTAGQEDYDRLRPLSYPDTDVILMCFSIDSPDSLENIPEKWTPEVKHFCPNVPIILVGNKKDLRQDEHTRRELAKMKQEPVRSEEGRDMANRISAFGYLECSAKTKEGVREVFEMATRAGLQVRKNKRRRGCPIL
Description: as §2, §3, §4

[7] = 6-TG 1 μM every 48 h with DETA/NO or GSNO 10 μM, longer than ~10 days
[8] = [3H]GDP-loaded Rho protein 1 μM titrated with 6-TGDP, FIG. 16A, read-out: appKD for 6-TGDP
[9] = 8-TG 1 μM with NO donor (DETA/NO or GSNO 10 μM), not shown
[10] = determined within this study, read-out: trueKD for GDP

cellular expression level of Rac1 and ERM ([3]; presence or absence of 6-TG, FIG. 26A): not changed | MS peak representing 6-TGNP-RhoA adduct ([4]; both 6-TG and NO, intensity not truly quantitative): increased
Compound: Nc1nc2nc[nH]c2c(=S)[nH]1 [6-TG, 6-thioguanine]
viability of 6-TG-resisting cells [1, 7]: decrease in the viability | apoptosis within a day ([1]; 6-TG 1 μM, not shown): most cells underwent apoptosis | initial cells that resisted additional treatment ([1]; 6-TG 1 μM, not shown): ~20% | viability of 6-TG-resisting cells [2, 7]: decrease in the viability | apoptosis within a day ([2]; 6-TG 1 μM, not shown): most cells underwent apoptosis | initial cells that resisted additional treatment ([2]; 6-TG 1 μM, not shown): ~20% | Rac1 inactivation ([3]; 6-TG 1 μM, within 3 days, FIG. 26B): significant portion of Rac1 was inactivated | fraction of inactive Rac1 ([3]; 6-TG plus DETA/NO 10 μM): synergistically increases the fraction of inactive Rac1 | thioguanine nucleotide-RhoA disulfide adduct (Cys20) [4]: biologically inactive 6-TGNP-RhoA disulfide adduct

Kd [5, 8]: 11.8 µM | Kd ([5]; calculated by compensation equation, FIG. 16A, read-out: trueKD for 6-TGDP): 11.1 µM | Kd [6, 8]: 11.2 µM | Kd ([6]; calculated by compensation equation, FIG. 16A, fourth value of the list, read-out: trueKD for 6-TGDP): 10.5 µM
Compound: Nc1nc2c(ncn2[C@@H]2O[C@H](COP(=O)(O)OP(=O)(O)O)[C@@H](O)[C@H]2O)c(=S)[nH]1 [6-TGDP, 6-thioguanosine diphosphate]

screen of 6-TP isomers on Rac1 activity ([3]; not shown): most effectively inhibits Rac1 activity
Compound: Nc1nc2[nH]c(S)nc2c(=O)[nH]1 [8-TG, 2-amino-8-mercapto-1H-purin-6(9H)-one]
viability and anchorage-independent growth [1, 9]: did not affect | viability and anchorage-independent growth [2, 9]: did not affect | thioguanine nucleotide-RhoA disulfide adduct (Cys20) [4]: biologically inactive 8-TGNPRhoA disulfide adduct

Compound: Nc1nc2c(ncn2[C@@H]2O[C@H](COP(=O)(O)OP(=O)(O)O)[C@@H](O)[C@H]2O)c(=O)[nH]1 [GDP]
Kd [5, 10]: 15 ± 8 µM | Kd [6, 10]: 14.2 ± 8 µM
